Results from US20040076974A1, “Liver necrosis predictive genes” (priority 2002, published 2004).
Where “and” joins values, the source holds several entries; their conditions need not be identical. Equal values may be shown once. Read-outs that look alike come from different tables or passages of the source.

Key:
Sprague Dawley rats = details: rat, in vivo; for Liver Necrosis / Score (histopathology liver necrosis severity score): ip
Procedure, shortened: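 Toxicity calls (necrosis present or absent at 72 h) and histopathology scores were correlated with tissue gene expression from Crl:CD Sprague Dawley rats. Animals, usually 3 treated with compound by i.p. route and 3 given vehicle, were killed at 6, 24 or 72 h and tissues frozen immediately in liquid nitrogen.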

[1] = test system: toxicologically relevant rat genes (rat CT array); details: rat, in vivo

O=P1(N(CCCl)CCCl)NCCCO1 (centres unmarked) [cyclophosphamide]
Liver Toxicity Necrosis Classification (Sprague Dawley rats): no | Liver Necrosis (Sprague Dawley rats; 25 mg/kg): no | Score (histopathology liver necrosis severity score) (Sprague Dawley rats; 25 mg/kg): 1 | Liver Necrosis (Sprague Dawley rats; 100 mg/kg): no | Score (histopathology liver necrosis severity score) (Sprague Dawley rats; 100 mg/kg): 1 | 3-hydroxyisobutyrate dehydrogenase expression [1]: 0.9805 and 0.7489 and 0.9559 and 1.069 | 14-3-3 zeta expression [1]: 1.184 and 1.14 and 0.9397 and 1.393 and 1.097 and 1.241 and 0.8233 and 0.7916 | 60S ribosomal protein L6 expression [1]: 0.9039 and 0.9014 and 0.8838 and 1.028 and 0.8728 and 0.8315 | ATPase inhibitor (rat mitochondrial IF1 protein) expression [1]: 0.7509 and 0.9233 and 0.8847 and 0.6961 and 0.9379 and 0.8829 and 0.8577 and 0.9897 | Adenine nucleotide translocator 1 expression [1]: 0.9086 and 0.7561 and 1.167 | Aflatoxin B1 aldehyde reductase expression [1]: 0.6743 and 0.8573 and 0.9459 and 0.6588 and 0.7015 | Alpha-1 microglobulin/bikunin precursor (Ambp) expression [1]: 1.017 and 0.5993 and 0.8086 | Alpha-2-macroglobulin expression [1]: 0.846 and 0.9185 and 0.7109 and 1.376 and 0.7513 | Alpha-2-macroglobulin, sequence 2 expression [1]: 0.9485 and 1.095 and 1.193 | Alpha-prothymosin expression [1]: 0.6454 and 0.6204 | Alpha-tubulin expression [1]: 1.198 and 0.7656 and 0.8189 | Annexin V expression [1]: 1.206 and 1.05 and 1.01 | Apolipoprotein All expression [1]: 0.9781 and 0.8882 and 0.8841 | Apolipoprotein C1 expression [1]: 0.9407 and 0.9263 and 1.074 | Apolipoprotein CIII expression [1]: 0.9783 and 0.6934 and 0.9372 | Aquaporin-3 (AQP3) expression [1]: 0.9643 and 0.9481 and 0.9808 | Arginosuccinate synthetase 1 expression [1]: 1.222 and 0.8241 and 1.258 | Bax (alpha) expression [1]: 1.239 and 1.237 and 1.357 and 1.269 and 0.9338 | Beta-actin, sequence 2 expression [1]: 1.01 and 0.7994 and 0.7978 | Beta-tubulin, class I expression [1]: 0.6539 and 0.688 | Betaine homocysteine methyltransferase (BHMT) expression [1]: 0.479 and 0.46 and 0.7332 | Biliverdin reductase expression [1]: 0.8817 and 0.9203 and 1 | C-reactive protein expression [1]: 1.634 and 0.981 and 1.457 | CDK108 expression [1]: 0.8582 and 0.7188 and 0.8687 | Calpactin I heavy chain expression [1]: 1.229 and 1.24 and 1.238 and 1.077 and 1.066 and 1.019 and 0.9156 | Calpain 2 expression [1]: 0.949 and 0.9377 and 0.9321 | Cathepsin B expression [1]: 0.8937 and 0.8218 and 0.8443 | Cathepsin S expression [1]: 1.022 and 1.151 | Cofilin expression [1]: 1.007 and 0.8938 and 0.9356 | Collagen type II expression [1]: 0.9485 and 0.8839 and 0.6238 | Contrapsin-like protease inhibitor (CPi-21) expression [1]: 1.085 and 0.6397 and 0.8351 | Cyclin D1 expression [1]: 0.8933 and 1.39 | Cystatin C expression [1]: 0.9711 and 1.107 and 0.9417 | Dynamin-1 (D100) expression [1]: 0.9779 and 1.159 and 1.053 and 0.8876 and 0.9989 and 0.9805 and 0.8392 and 0.9019 | Elongation factor-1 alpha expression [1]: 1.136 and 0.9264 | Epidermal growth factor expression [1]: 1.068 and 1.046 (2×) and 0.855 and 1.03 | F1-ATPase beta subunit expression [1]: 0.9746 and 0.7787 and 0.8888 | Fas antigen expression [1]: 1.289 and 1.407 and 0.9112 and 1.614 and 1.141 | Fatty acid synthase expression [1]: 0.8145 and 0.6404 and 0.4288 | Gadd45 expression [1]: 0.951 and 0.9302 and 1.226 and 0.8099 and 0.9252 | Gadd153 expression [1]: 1.107 and 1.088 and 1.217 and 1.23 and 1.048 | Glutathione S-transferase theta-1 expression [1]: 1.063 and 0.5752 and 0.7421 | Heme oxygenase expression [1]: 0.9535 and 0.8807 and 1.153 and 0.8353 and 0.9394 and 1.116 and 1.353 and 1.508 | High affinity IgE receptor gamma chain (FcERIgamma) expression [1]: 0.8735 and 0.8896 and 0.9764 | Hypoxanthine-guanine phosphoribosyltransferase expression [1]: 0.9194 and 0.7728 and 0.8641 | ID-1 expression [1]: 1.442 and 1.187 and 1.516 and 0.9754 and 1.354 | IgE binding protein expression [1]: 0.8797 | Integrin beta1 expression [1]: 1.174 and 0.9675 and 1.666 and 0.9992 | Interleukin-18 expression [1]: 0.9442 and 1.131 | JNK1 stress activated protein kinase expression [1]: 1.083 and 1.357 | L-gulono-gamma-lactone oxidase expression [1]: 0.9031 and 1.152 and 0.724 and 0.7478 and 0.9085 | Lecithin: cholesterol acyltransferase expression [1]: 1.164 and 0.8942 and 0.9655 | Matrin F/G expression [1]: 1.192 and 0.8718 and 1.349 and 1.163 | Melanoma-associated antigen ME491 expression [1]: 0.8571 and 0.8832 and 0.9165 | Monocyte chemotactic protein receptor (CCR2) expression [1]: 0.9135 and 0.9294 and 1.707 and 0.9161 and 1.021 | Multidrug resistant protein-1 expression [1]: 1.07 and 0.9469 and 1.398 | Multidrug resistant protein-2 expression [1]: 1.024 and 1.129 and 1.355 | NADP-dependent isocitrate dehydrogenase, cytosolic expression [1]: 0.8988 and 1.062 | NIPK expression [1]: 1.292 and 0.8721 | Nucleoside diphosphate kinase beta isoform expression [1]: 0.9788 and 0.8819 and 0.9694 | Organic anion transporter 3 expression [1]: 1.199 and 1.24 and 0.8444 and 0.9666 | Organic cation transporter 3 expression [1]: 0.9369 and 0.9031 and 0.9971 and 1.049 and 1.006 and 0.9297 and 0.8878 | Ornithine decarboxylase expression [1]: 1.176 and 1.138 and 1.239 and 1.627 and 1.232 and 1.15 and 0.9487 and 1.103 | Osteoactivin expression [1]: 1.044 and 1.068 and 1.102 | PAR interacting protein expression [1]: 0.9853 and 0.8819 and 1.001 and 0.9074 and 0.8501 | Phase-1 RCT-15 expression [1]: 1.548 | Phase-1 RCT-24 expression [1]: 0.8922 | Phase-1 RCT-33 expression [1]: 0.9894 and 0.9036 and 0.7825 and 0.5992 | Phase-1 RCT-36 expression [1]: 0.8405 and 0.8638 and 0.7841 | Phase-1 RCT-38 expression [1]: 0.6634 | Phase-1 RCT-39 expression [1]: 1.102 and 0.8162 | Phase-1 RCT-40 expression [1]: 0.9476 and 0.7827 and 0.6627 and 0.9191 | Phase-1 RCT-43 expression [1]: 1.413 | Phase-1 RCT-48 expression [1]: 0.7872 | Phase-1 RCT-49 expression [1]: 0.9994 | Phase-1 RCT-50 expression [1]: 1.001 and 0.9172 | Phase-1 RCT-57 expression [1]: 1 | Phase-1 RCT-58 expression [1]: 0.9564 | Phase-1 RCT-61 expression [1]: 0.956 and 0.9001 | Phase-1 RCT-65 expression [1]: 1.662 | Phase-1 RCT-68 expression [1]: 1.562 | Phase-1 RCT-78 expression [1]: 0.8268 | Phase-1 RCT-81 expression [1]: 0.9793 | Phase-1 RCT-88 expression [1]: 0.7545 and 0.7728 and 0.8998 and 0.9204 | Phase-1 RCT-89 expression [1]: 0.8326 | Phase-1 RCT-92 expression [1]: 0.7803 and 0.7782 | Phase-1 RCT-117 expression [1]: 0.9098 | Phase-1 RCT-121 expression [1]: 0.9382 | Phase-1 RCT-123 expression [1]: 0.8497 | Phase-1 RCT-128 expression [1]: 0.7223 | Phase-1 RCT-137 expression [1]: 0.7713 | Phase-1 RCT-138 expression [1]: 0.9171 | Phase-1 RCT-144 expression [1]: 0.8012 and 0.9797 and 0.8356 | Phase-1 RCT-146 expression [1]: 0.8995 | Phase-1 RCT-149 expression [1]: 1.199 | Phase-1 RCT-152 expression [1]: 0.9267 and 0.8689 | Phase-1 RCT-154 expression [1]: 0.9702 | Phase-1 RCT-156 expression [1]: 1.626 | Phase-1 RCT-164 expression [1]: 1.443 and 0.9271 | Phase-1 RCT-179 expression [1]: 0.9473 and 0.8452 and 0.9271 | Phase-1 RCT-180 expression [1]: 0.9312 and 0.9629 | Phase-1 RCT-182 expression [1]: 0.7286 and 0.6249 and 0.7487 and 1.104 | Phase-1 RCT-189 expression [1]: 1.097 and 0.7075 and 0.8923 | Phase-1 RCT-192 expression [1]: 1.102 | Phase-1 RCT-207 expression [1]: 0.9999 and 1.403 and 0.9634 and 0.8151 | Phase-1 RCT-211 expression [1]: 1.001 | Phase-1 RCT-213 expression [1]: 0.9194 and 0.9272 | Phase-1 RCT-227 expression [1]: 0.8544 and 0.7558 | Phase-1 RCT-230 expression [1]: 0.8887 | Phase-1 RCT-241 expression [1]: 0.9823 | Phase-1 RCT-258 expression [1]: 1.294 and 1.004 and 1.001 | Phase-1 RCT-260 expression [1]: 0.9269 | Phase-1 RCT-264 expression [1]: 0.7874 | Phase-1 RCT-270 expression [1]: 0.9664 and 0.6832 | Phase-1 RCT-271 expression [1]: 0.642 and 0.7477 | Phase-1 RCT-288 expression [1]: 0.8319 and 0.9535 | Phase-1 RCT-290 expression [1]: 0.6874 and 0.7078 and 0.8375 | Phase-1 RCT-291 expression [1]: 1 and 0.8077 and 0.9279 | Phase-1 RCT-292 expression [1]: 0.8838 | Poly(ADP-ribose) polymerase expression [1]: 0.9399 and 0.8855 and 1.07 | Presenilin-1 expression [1]: 0.6993 and 0.8827 and 0.7827 | Proliferating cell nuclear antigen gene expression [1]: 0.8773 and 0.9599 and 1 | Protein tyrosine phosphatase, receptor type, D expression [1]: 1.351 and 1.117 | Pyruvate kinase, muscle expression [1]: 0.9707 and 1.019 and 0.8026 | Retinol dehydrogenase type III expression [1]: 1.384 and 0.6954 and 0.7914 | Ribosomal protein S8 expression [1]: 0.9951 and 0.8646 and 0.9055 | Ribosomal protein S17 expression [1]: 0.973 and 0.9247 and 0.8883 and 1.41 and 1.034 and 0.9413 | Stathmin expression [1]: 1.012 and 1.005 and 0.8767 | Thioredoxin-1 (Trx1) expression [1]: 0.9618 and 0.9127 and 0.8599 | Thymidylate synthase expression [1]: 1.077 and 1.121 and 1.142 | Thymosin beta-10 expression [1]: 1.026 and 0.8658 and 0.6552 | Tissue plasminogen activator expression [1]: 0.8917 and 0.8347 and 0.9056 | Transitional endoplasmic reticulum ATPase expression [1]: 0.9095 and 0.8634 and 0.9474 | Transthyretin expression [1]: 0.9173 and 0.9384 and 0.8358 and 0.667 and 1.075 | Ubiquitin conjugating enzyme (RAD 6 homologue) expression [1]: 0.9811 and 1.057 and 0.8291 and 1.341 and 1.041 and 1.145 and 0.8334 and 1.02 | Uncoupling protein 2 expression [1]: 0.8638 and 0.7241 | Zinc finger protein expression [1]: 0.991 and 1.034 and 1.076 and 1.004 and 1.101 and 0.9835 and 1.081 and 1.11 | c-myc expression [1]: 0.9533 (2×) and 0.912 and 1.636 and 0.8965 | p55CDC expression [1]: 0.9412 and 1.059 and 0.9495 | {Phase-1 RCT 98} expression [1]: 0.8899 and 0.9469 | {Ribosomal protein 16} expression [1]: 1.097 and 0.9357 and 0.8372
